# Results taken from US12545640B2, “Substituted 6,7-dihydro-5H-benzo[7]annulene compounds, processes for their preparation and therapeutic uses thereof” (SANOFI, priority 2019, dated 2026).
# Molecular target: T1, ERα (Homo sapiens, UniProt P03372)
# T1 construct: host or cells: MCF7 cells
# T1 sequence (P03372 1-595): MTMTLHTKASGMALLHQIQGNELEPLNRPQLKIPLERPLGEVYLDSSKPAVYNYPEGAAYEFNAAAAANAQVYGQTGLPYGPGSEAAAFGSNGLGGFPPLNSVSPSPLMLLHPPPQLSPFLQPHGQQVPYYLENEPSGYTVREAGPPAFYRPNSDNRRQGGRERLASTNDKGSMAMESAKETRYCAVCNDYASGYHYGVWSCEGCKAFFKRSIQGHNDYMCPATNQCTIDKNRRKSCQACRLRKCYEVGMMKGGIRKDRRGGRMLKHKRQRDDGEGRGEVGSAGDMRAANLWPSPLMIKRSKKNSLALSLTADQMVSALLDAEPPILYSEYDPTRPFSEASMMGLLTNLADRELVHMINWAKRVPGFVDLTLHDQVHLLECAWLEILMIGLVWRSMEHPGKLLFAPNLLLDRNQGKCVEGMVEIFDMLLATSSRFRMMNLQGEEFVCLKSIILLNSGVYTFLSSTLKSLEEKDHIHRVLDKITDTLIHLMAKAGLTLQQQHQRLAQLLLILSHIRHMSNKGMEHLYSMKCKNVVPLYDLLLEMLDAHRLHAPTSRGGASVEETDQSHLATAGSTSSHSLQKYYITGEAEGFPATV
# Test: Estrogen receptor degradation activity: breast cancer cell ERα in cell western assay (MCF7 cells)
# Assay type: cell-based
# Details: 4 hours, final concentrations ranging from 0.3-0.0000018 μM, relative to fulvestrant 0.1 μM positive control
# Method in brief: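 MCF7 cells in phenol red-free MEM alpha with 5% charcoal-stripped FBS, treated 4 h with 9-point 1:5 dilutions (top final 3 or 0.3 μM); fulvestrant 0.1 μM as positive control. Formalin-fixed, anti-ER antibody with Alexa 488 secondary; ERα fluorescence normalised to Syto-64 DNA signal.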
row,Structure (SMILES),% Degradation At 0.3 μM [%]
1,"Nc1cc(-c2ccc3c(c2)CCCC(c2ccc(Cl)cc2Cl)=C3c2ccc(O[C@H]3CCN(CCCF)C3)cc2)n[nH]1 [Example 73, (S)-3-(8-(2,4-dichlorophenyl)-9-(4-((1-(3-fluoropropyl)pyrrolidin-3-yl)oxy)phenyl)-6,7-dihydro-5H-benzo[7]annulen-3-yl)-1H-pyrazol-5-amine]",89
2,"CC(C)(O)c1ccc(-c2ccc3c(c2)CCCC(c2cccc(F)c2Cl)=C3c2ccc(O[C@H]3CCN(CCCF)C3)cc2)cc1 [Example 98, (S)-2-(4-(8-(2-chloro-3-fluorophenyl)-9-(4-((1-(3-fluoropropyl)pyrrolidin-3-yl)oxy)phenyl)-6,7-dihydro-5H-benzo[7]annulen-3-yl)phenyl)propan-2-ol]",59
3,"O=C(c1ccc2c(c1)CCCC(c1ccc(Cl)cc1Cl)=C2c1ccc(O[C@H]2CCN(CCCF)C2)cc1)N1CC(O)C1 [Example 74, (S)-(8-(2,4-dichlorophenyl)-9-(4-((1-(3-fluoropropyl)pyrrolidin-3-yl)oxy)phenyl)-6,7-dihydro-5H-benzo[7]annulen-3-yl)(3-hydroxyazetidin-1-yl)methanone]",59
4,"CC1(C)OB(c2ccc3c(c2)CCCC(c2ccccc2)=C3c2ccc(O[C@H]3CCN(CCCF)C3)cc2)OC1(C)C [Example 91, (S)-1-(3-fluoropropyl)-3-(4-(8-phenyl-3-(4,4,5,5-tetramethyl-1,3,2-dioxaborolan-2-yl)-6,7-dihydro-5H-benzo[7]annulen-9-yl)phenoxy)pyrrolidine]",90
5,"OC(c1ccc2c(c1)CCCC(c1cccc(F)c1Cl)=C2c1ccc(O[C@H]2CCN(CCCF)C2)cc1)C(F)(F)F (stereo partly drawn) [Example 65, 1-(8-(2-chloro-3-fluorophenyl)-9-(4-(((S)-1-(3-fluoropropyl)pyrrolidin-3-yl)oxy)phenyl)-6,7-dihydro-5H-benzo[7]annulen-3-yl)-2,2,2-trifluoroethan-1-ol]",90
6,"CCOc1ccc(C2=C(c3ccc(O[C@H]4CCN(CCCF)C4)cc3)c3ccc(C#N)cc3CCC2)c(F)n1 [Example 80, (S)-8-(6-ethoxy-2-fluoropyridin-3-yl)-9-(4-((1-(3-fluoropropyl)pyrrolidin-3-yl)oxy)phenyl)-6,7-dihydro-5H-benzo[7]annulene-3-carbonitrile 2,2,2-trifluoroacetate]",90
7,"CC1(C(=O)Nc2ccc3c(c2)CCCC(c2ccc(Cl)cc2Cl)=C3c2ccc(O[C@H]3CCN(CCCF)C3)cc2)CC1 [Example 67, (S)—N-(8-(2,4-dichlorophenyl)-9-(4-((1-(3-fluoropropyl)pyrrolidin-3-yl)oxy)phenyl)-6,7-dihydro-5H-benzo[7]annulen-3-yl)-1-methylcyclopropane-1-carboxamide]",79

# Same assay, conditions: 4 hours, final concentrations ranging from 3-0.000018 μM, relative to fulvestrant 0.1 μM positive control
row,Structure (SMILES),% Degradation At 3 μM [%]
1,"Cl.O=S1NC(c2ccc3c(c2)CCCC(c2ccc(Cl)cc2Cl)=C3c2ccc(O[C@H]3CCN(CCCF)C3)cc2)=NO1 (stereo partly drawn) [Example 29, 4-(8-(2,4-dichlorophenyl)-9-(4-(((S)-1-(3-fluoropropyl)pyrrolidin-3-yl)oxy)phenyl)-6,7-dihydro-5H-benzo[7]annulen-3-yl)-3H-1,2,3,5-oxathiadiazole 2-oxide hydrochloride]",91
2,"CC(=N)Nc1ccc2c(c1)CCCC(c1ccc(Cl)cc1Cl)=C2c1ccc(O[C@H]2CCN(CCCF)C2)cc1 [Example 46, (S)—N-(8-(2,4-dichlorophenyl)-9-(4-((1-(3-fluoropropyl)pyrrolidin-3-yl)oxy)phenyl)-6,7-dihydro-5H-benzo[7]annulen-3-yl)acetimidamide]",95
3,"O=c1cc(-c2ccc3c(c2)CCCC(c2ccc(Cl)cc2Cl)=C3c2ccc(O[C@H]3CCN(CCCF)C3)cc2)[nH][nH]1 [Example 12, (S)-5-(8-(2,4-dichlorophenyl)-9-(4-((1-(3-fluoropropyl)pyrrolidin-3-yl)oxy)phenyl)-6,7-dihydro-5H-benzo[7]annulen-3-yl)-1,2-dihydro-3H-pyrazol-3-one]",83
4,"FCCCN1CC[C@H](Oc2ccc(C3=C(c4ccc(Cl)cc4Cl)CCCc4cc(-c5cc[nH]n5)ccc43)cc2)C1 [Example 51, (S)-3-(8-(2,4-dichlorophenyl)-9-(4-((1-(3-fluoropropyl)pyrrolidin-3-yl)oxy)phenyl)-6,7-dihydro-5H-benzo[7]annulen-3-yl)-1H-pyrazole]",81
5,"O=c1[nH]nc(-c2ccc3c(c2)CCCC(c2ccc(Cl)cc2Cl)=C3c2ccc(O[C@H]3CCN(CCCF)C3)cc2)o1 [Example 31, (S)-5-(8-(2,4-dichlorophenyl)-9-(4-((1-(3-fluoropropyl)pyrrolidin-3-yl)oxy)phenyl)-6,7-dihydro-5H-benzo[7]annulen-3-yl)-1,3,4-oxadiazol-2(3H)-one]",95
6,"CC(=O)Nc1ccc2c(c1)CCCC(c1ccc(Cl)cc1Cl)=C2c1ccc(O[C@H]2CCN(CCCF)C2)cc1 [Example 48, (S)—N-(8-(2,4-dichlorophenyl)-9-(4-((1-(3-fluoropropyl)pyrrolidin-3-yl)oxy)phenyl)-6,7-dihydro-5H-benzo[7]annulen-3-yl)acetamide]",70
7,"O=c1[nH]c(-c2ccc3c(c2)CCCC(c2ccc(Cl)cc2Cl)=C3c2ccc(O[C@H]3CCN(CCCF)C3)cc2)ns1 [Example 37, (S)-3-(8-(2,4-dichlorophenyl)-9-(4-((1-(3-fluoropropyl)pyrrolidin-3-yl)oxy)phenyl)-6,7-dihydro-5H-benzo[7]annulen-3-yl)-1,2,4-thiadiazol-5(4H)-one]",98
8,"FCCCN1CC[C@H](Oc2ccc(C3=C(c4ccc(Cl)cc4Cl)CCCc4cc(-c5nn[nH]n5)ccc43)cc2)C1 [Example 16, (S)-5-(8-(2,4-dichlorophenyl)-9-(4-((1-(3-fluoropropyl)pyrrolidin-3-yl)oxy)phenyl)-6,7-dihydro-5H-benzo[7]annulen-3-yl)-2H-tetrazole]",86
9,"FCCCN1CC[C@H](Oc2ccc(C3=C(c4ccc(Cl)cc4Cl)CCCc4cc(-c5noc(=S)[nH]5)ccc43)cc2)C1 [Example 34, (S)-3-(8-(2,4-dichlorophenyl)-9-(4-((1-(3-fluoropropyl)pyrrolidin-3-yl)oxy)phenyl)-6,7-dihydro-5H-benzo[7]annulen-3-yl)-1,2,4-oxadiazole-5(4H)-thione]",66
10,"Nc1nc(-c2ccc3c(c2)CCCC(c2ccc(Cl)cc2Cl)=C3c2ccc(O[C@H]3CCN(CCCF)C3)cc2)cs1 [Example 61, (S)-4-(8-(2,4-dichlorophenyl)-9-(4-((1-(3-fluoropropyl)pyrrolidin-3-yl)oxy)phenyl)-6,7-dihydro-5H-benzo[7]annulen-3-yl)thiazol-2-amine]",76
11,"O=C(NO)c1ccc2c(c1)CCCC(c1ccc(Cl)cc1Cl)=C2c1ccc(O[C@H]2CCN(CCCF)C2)cc1 [Example 18, (S)-8-(2,4-dichlorophenyl)-9-(4-((1-(3-fluoropropyl)pyrrolidin-3-yl)oxy)phenyl)-N-hydroxy-6,7-dihydro-5H-benzo[7]annulene-3-carboxamide]",85
12,"CS(=O)(=O)NC(=O)c1ccc2c(c1)CCCC(c1ccc(Cl)cc1Cl)=C2c1ccc(O[C@H]2CCN(CCCF)C2)cc1 [Example 15, (S)-8-(2,4-dichlorophenyl)-9-(4-((1-(3-fluoropropyl)pyrrolidin-3-yl)oxy)phenyl)-(methylsulfonyl)-6,7-dihydro-5H-benzo[7]annulene-3-carboxamide]",90
